Test [1] concerns wild-type C. albicans strain SC5314. Briefly: plate assays, CFU counting and growth curves in minimal media. The class given is cell-based, Candida albicans. The settings on record: for fungistatic or fungicidal effect (CFUs vs pre-incubation): 30 µM ebselen, 430 µM LOC14, 170 µM CBR-5884; for fungistatic or fungicidal effect (CFUs vs pre-incubation) / rescue of CFUs by 1 mM ethanolamine: 24 h; for rescue of CFUs by 1 mM ethanolamine: optimized drug concentrations (CBR-5884 ≥170 µM), minimal medium. As for the experimental part:
The antifungal effects of ebselen, LOC14 ,and CBR-5884 on live cells were further evaluated by plate assays and growth curves. First, we tried to determine if the inhibitory effects of these compounds were fungistatic or fungicidal. It should be highlighted that in contrast to the MIC assays, the plate assays and growth curve analyses necessitated a greater initial inoculum (OD600 of 0.05 as opposed to 0.00004) for detection. Additionally, a reduced incubation temperature of 30°C instead of 37°C was required to inhibit the hyphal formation, which, in turn, required the adjustment of compound concentrations used. For this, wild-type C. albicans strain SC5314 was grown with varying concentrations of ebselen, LOC14, and CBR-5884 in minimal media at 30°C for 24 h, along with a cho1ΔΔ strain as a control. […] To further determine the optimized inhibitory concentrations and whether the inhibition is fungistatic or fungicidal, wild-type C. abicans SC5314 was then incubated with ebselen, LOC14, and CBR-5884 in a dosage series with 10 µM increments within the inhibition range determined above, and colony forming units (CFUs) were counted after 24 h incubation.
Plate assays and growth curves were conducted in minimal media or minimal media supplemented with 1 mM ethanolamine (ETA). Wild-type SC5314 and cho1ΔΔ strains were grown in YPD overnight and washed three times with H2O before inoculation. The starting OD600 is 0.05 for both plate assays and growth curves. For plate assays, both wild-type and cho1ΔΔ strains were grown in flat-bottom 96-well plates at a final volume of 200 µL, in the presence of different compounds or DMSO as indicated at 30°C. The final DMSO concentration was maintained at 2.5% across all treatments. A Leica inverted microscope was then used to visualize growth after 24 h incubations. In the meantime, cells grown in different compounds were subjected to live cell counting. Cell cultures from flat-bottom 96-well plates after 24 h incubation were diluted 100–10,000 times before plating on the minimal media, and the total colony-forming unit (CFU) was kept within 200 for each plate. A total of six biological replicates were done in each condition.
The growth curves with LOC14 and CBR-5884 treatments were measured from 2 to 30 h with OD600 measurements every 2 h. A final concentration of 170 µM CBR-5884, 430 µM LOC14, and 5 mM serine was added into each group as indicated. To test the stability of CBR-5884, minimal medium supplemented with 170 µM CBR-5884 or equivalent DMSO was agitated for 12 h before the introduction of wildtype C. albicans SC5314 strain, and growth curves were recorded from 0 to 14 h with OD600 measurement every 2 h. To check the resistance of C. albicans in CBR-5884, SC5314 strain was grown in 170 µM CBR-5884 for 12 and 24 h before being diluted in fresh minimal medium supplemented with fresh 170 µM CBR-5884 or equivalent DMSO. The growth curves were recorded from 0 to 14 h with OD600 measurement every 2 h. The final DMSO concentration was maintained at 1.7% across all treatments.

Test [2] shares this test system. Description: CLSI MIC broth microdilution. To be noted: Candida albicans. The class given is cell-based, Candida albicans. On the procedure: We then tested the effects of the six compounds on live cells by determining the minimal inhibitory concentrations (MICs) of these compounds. Following the standard Clinical & Lab Standards Institute (CLSI) MIC broth microdilution methods, wild-type C. albicans strain SC5314 was grown with avasimibe, CBR-5884, tideglusib, ebselen, ML-345, and LOC14 in RPMI MOPS medium (pH 7.0) or alternatively in minimal medium or minimal medium with HEPES (pH 7.0) at 37°C for 48 h, along with a cho1ΔΔ strain as a control (Fig. 3A through C). The concentration of the compounds was varied from 0.5 to 250 µM. […] Ebselen, LOC14, and CBR-5884, on the contrary, stopped cell growth at different concentrations in all three media, with MICs ranging between 7.8 and 31.3 μM (Fig. 3A through D). […] Specific MIC values are summarized in Fig. 3D for all the compounds.
Minimum inhibitory concentration (MIC) was determined following Clinical & Lab Standards Institute (CLSI) MIC broth microdilution protocol (Licensed to Todd Reynolds, license # Ord-1138682) ([98], [99]). Briefly, stock solutions of different compounds (purchased from MedChemExpress) were prepared at a concentration of 10 mM in DMSO and subsequently diluted as required in the same solvent. Wild-type C. albicans strain SC5314, as well as four additional wild-type strains—GDH2346, 3153A, TFPY412, and TFPY2307, were cultured overnight in YPD medium at 30°C, washed with water three times, and then diluted to a concentration of 2 × 10^3 cells/mL (OD600 = 0.00008) in one of the three media [minimal medium, minimal medium buffered with 50 mM HEPES (pH 7.0) and RPMI MOPS (pH 7.0)]. The cho1ΔΔ strain was also included as a control. A volume of 100 µL from each cell suspension was dispensed into the wells of a flat-bottom 96-well plate. An additional 100 µL of corresponding medium, containing twice the final desired concentration of each drug, was added to each well, leading to a final initial inoculum of 1 × 10^3 cells/mL (OD600 = 0.00004). The final DMSO concentration was maintained at 2.5% across all treatments. Following preparation, the plates were incubated at 37°C for 48 h and photos were taken with a Bio-Rad Gel Doc XR + Imaging System.

The subject of test [3] is crude membrane containing Cho1. Briefly: radioactive PS synthase assay on crude membrane containing Cho1. The class given is biochemical, Candida albicans. The settings on record: compounds at 1 mM. On the procedure:
Enzymatic activity of Cho1 in the presence of the compounds was measured using the radioactive PS synthase assay. For purified Cho1, the procedure was fully described in reference ([33]). Briefly, 1–2 μg of purified Cho1 was added to the reaction containing 50 mM Tris-HCl (pH 8.0), 1 mM MnCl2, 0.1% Triton X-100, 0.04% digitonin, 0.1 mM (4.7 mol %), 16:0 CDP-DAG (Avanti, cat# 870510), and 0.5 mM L-serine [spiked with 5% (by volume) L-[^3H]-serine (15 Ci/mmol)] at a total volume of 100 µL, in the presence of 100 µM of each compound or equivalent DMSO solvent. The reaction was conducted at 30°C for 30 min, and [^3H]PS produced in the reaction was measured using a liquid scintillation counter. For crude membrane samples, crude membrane preps from wildtype and cho1ΔΔ strains were collected and assayed as described in reference ([33]) with the exception that 2 mM L-serine [spiked with 5% (by volume) L-[^3H]-serine (15 Ci/mmol)] was used in each reaction. A final concentration of 1 mM of each compound was used for the crude membrane samples.

Where [4] appears, read: SC5314, 48 h, pH 7, read-out: Minimal Inhibitory Concentration (MIC): MM, HEPES 7.0.
The mark [5] stands for this setting: SC5314, 48 h, pH 7, read-out: Minimal Inhibitory Concentration (MIC): RPMI, MOPS 7.0.
The mark [6] stands for this setting: SC5314, 48 h, read-out: MICs across all three media.
Where [7] appears, read: SC5314, 48 h, read-out: Minimal Inhibitory Concentration (MIC): MM.

Values after ≈ are worked out from the molar mass of the structure shown. Like-named read-outs stand apart in the source and are kept apart here.

The text below walks through data of paper PMC11077991, “The small molecule CBR-5884 inhibits the Candida albicans phosphatidylserine synthase” (mBio, 2024).

In the case of `CCOC(=O)c1sc(NC(=O)c2ccco2)c(SC#N)c1C` [CBR-5884], in test [1], the “fungistatic or fungicidal effect (CFUs vs pre-incubation)” value is given as “fungistatic effect”. In addition, in test [1] (170 µM CBR-5884, 1 mM ethanolamine), the “effect of ethanolamine on growth rate and lag time” value is “significantly increased the growth rate and decreased the lag time”. Besides, the “effect of 5 mM serine on growth inhibition” value in test [1] (170 µM CBR-5884, growth curve 0-30 h) is given as “serine did not help the cells recover”. In test [1] (170 µM CBR-5884, minimal medium, 30°C), the “duration of growth delay” value was found to be 12 h. For the same compound, in test [1], the “rescue of CFUs by 1 mM ethanolamine” value is “significantly higher CFUs”. Further, the MIC was 31.3 µM (≈ 10.5 µg/mL) in test [2] (setting [4]), 31.3 µM (≈ 10.5 µg/mL) in test [2] (setting [5]), 7.8 to 31.3 µM (≈ 2.62 to 10.5 µg/mL) in test [2] (setting [6]) and 7.8 µM (≈ 2.62 µg/mL) in test [2] (setting [7]). In test [3], the “PS production in native crude membranes” value is given as “decreased PS production”.

In the case of `O=c1c2ccccc2[se]n1-c1ccccc1` [Ebselen], the “CFU/μL after 24 h incubation with ethanolamine” value in test [1] (30 µM ebselen + 1 mM ETA) worked out at 0 CFU/μL. The “fungistatic or fungicidal effect (CFUs vs pre-incubation)” value in test [1] is “fungicidal effect”. Moreover, the “rescue of CFUs by 1 mM ethanolamine” value in test [1] is “did not rescue”. The MIC was 7.8 µM (≈ 2.14 µg/mL) in test [2] (SC5314, RPMI MOPS pH 7.0, 37°C, 48 h, read-out: Minimal Inhibitory Concentration (MIC): RPMI, MOPS 7.0); 15.6 µM (≈ 4.28 µg/mL) in test [2] (SC5314, minimal medium with 50 mM HEPES pH 7.0, 37°C, 48 h, read-out: Minimal Inhibitory Concentration (MIC): MM, HEPES 7.0); 7.8 µM (≈ 2.14 µg/mL) in test [2] (SC5314, minimal medium, 37°C, 48 h, read-out: Minimal Inhibitory Concentration (MIC): MM); 7.8 to 31.3 µM (≈ 2.14 to 8.58 µg/mL) in test [2] (SC5314, minimal medium, minimal medium HEPES, RPMI MOPS, 37°C, 48 h, read-out: MICs across all three media). For the same compound, in test [3], the “PS production in native crude membranes” value is “decreased PS production”.

`O=C(C1CC1)N1CCN(Cn2sc3ccccc3c2=O)CC1` [LOC14]: the “fungistatic or fungicidal effect (CFUs vs pre-incubation)” value in test [1] is “fungistatic effect”. For the same compound, the “growth curve in presence or absence of ethanolamine” value in test [1] (430 µM LOC14, 0-30 h) was “no cells grew”. In test [1], the “rescue of CFUs by 1 mM ethanolamine” value is given as “did not rescue”. In addition, the MIC was 15.6 µM (≈ 4.95 µg/mL) in test [2] (setting [4]), 31.3 µM (≈ 9.94 µg/mL) in test [2] (setting [5]), 7.8 to 31.3 µM (≈ 2.48 to 9.94 µg/mL) in test [2] (setting [6]) and 15.6 µM (≈ 4.95 µg/mL) in test [2] (setting [7]). Further, in test [3], the “PS production in native crude membranes” value was “decreased PS production”.
